A short description of data set [1]: Inhibition of HCMV recombinant DNA polymerase expressed in baculovirus infected SF9 cells after 12 mins by scintillation proximity assay. The arrangement: species or system Human betaherpesvirus 5.
The subject of the next data set is Human alphaherpesvirus 3. Nature of the data set: Antiviral activity against Varicella zoster virus infected in HFF cells by plaque reduction assay. In kind it is functional, organism-based. To be noted: Human alphaherpesvirus 3, HFF.
The target in data set [2] is T1, DNA polymerase alpha catalytic subunit (Homo sapiens, UniProt P09884).
T1 sequence (P09884 whole entry): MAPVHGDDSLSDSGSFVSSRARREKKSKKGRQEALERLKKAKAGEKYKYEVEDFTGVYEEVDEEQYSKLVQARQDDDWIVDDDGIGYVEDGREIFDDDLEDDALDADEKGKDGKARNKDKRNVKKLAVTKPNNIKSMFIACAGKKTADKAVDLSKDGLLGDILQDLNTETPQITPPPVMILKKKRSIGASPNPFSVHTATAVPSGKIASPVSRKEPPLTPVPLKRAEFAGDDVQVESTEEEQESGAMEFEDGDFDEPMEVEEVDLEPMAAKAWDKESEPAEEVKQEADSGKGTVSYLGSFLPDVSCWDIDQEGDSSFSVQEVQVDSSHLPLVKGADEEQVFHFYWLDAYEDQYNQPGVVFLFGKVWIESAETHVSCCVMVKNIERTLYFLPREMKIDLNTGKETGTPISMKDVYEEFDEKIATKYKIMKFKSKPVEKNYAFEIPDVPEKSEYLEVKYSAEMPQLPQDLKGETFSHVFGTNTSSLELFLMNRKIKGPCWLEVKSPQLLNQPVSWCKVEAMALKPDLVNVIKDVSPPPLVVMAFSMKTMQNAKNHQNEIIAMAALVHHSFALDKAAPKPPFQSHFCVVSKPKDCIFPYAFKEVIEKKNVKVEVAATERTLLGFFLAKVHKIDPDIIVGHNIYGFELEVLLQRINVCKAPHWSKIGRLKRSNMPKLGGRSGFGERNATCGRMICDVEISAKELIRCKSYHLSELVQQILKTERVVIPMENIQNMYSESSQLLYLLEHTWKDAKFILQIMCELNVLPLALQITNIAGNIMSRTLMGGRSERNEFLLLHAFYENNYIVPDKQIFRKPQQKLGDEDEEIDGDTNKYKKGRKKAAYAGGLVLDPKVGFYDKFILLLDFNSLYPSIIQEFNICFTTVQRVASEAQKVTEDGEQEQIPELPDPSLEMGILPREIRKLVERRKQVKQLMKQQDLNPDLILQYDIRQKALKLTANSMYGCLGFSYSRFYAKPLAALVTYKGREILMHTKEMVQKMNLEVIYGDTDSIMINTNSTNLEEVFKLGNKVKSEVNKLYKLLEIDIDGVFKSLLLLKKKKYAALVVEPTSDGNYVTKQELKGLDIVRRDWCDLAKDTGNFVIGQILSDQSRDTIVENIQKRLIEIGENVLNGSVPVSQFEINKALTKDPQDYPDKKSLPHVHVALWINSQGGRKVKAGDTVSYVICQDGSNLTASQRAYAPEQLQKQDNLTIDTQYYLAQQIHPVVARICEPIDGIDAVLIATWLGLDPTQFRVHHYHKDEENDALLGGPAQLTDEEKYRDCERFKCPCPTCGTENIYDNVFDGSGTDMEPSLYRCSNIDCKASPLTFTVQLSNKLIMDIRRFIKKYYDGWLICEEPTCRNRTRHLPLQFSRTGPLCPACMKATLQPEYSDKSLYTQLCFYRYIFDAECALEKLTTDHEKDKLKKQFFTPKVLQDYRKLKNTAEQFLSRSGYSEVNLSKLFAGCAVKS
Nature of the data set: Inhibition of human recombinant DNA polymerase alpha expressed in baculovirus infected SF9 cells after 12 mins by scintillation proximity assay. In general terms: SPA uses beads or plates that emit light when radiolabelled molecules are held near them.

The nature of data set [3]: Cytotoxicity against HFF cells after 3 days by […] dye uptake assay. Particulars: human. It is filed as cell-based.
The nature of data set [4]: Inhibition of Varicella zoster virus recombinant DNA polymerase expressed in baculovirus infected SF9 cells after 12 mins by scintillation proximity assay. The arrangement: species or system Human alphaherpesvirus 3.
Data set [5] is described as follows: Aqueous solubility of the compound. It is filed as physicochemical.
For the next data set, the system named is Human betaherpesvirus 5. Nature of the data set: Antiviral activity against Human cytomegalovirus infected in HFF cells by plaque reduction assay. Particulars: Human betaherpesvirus 5, HFF. In kind it is functional, organism-based.

In brackets after ≈: the same amount, converted by molar mass. Some results are limits rather than exact numbers.

Turning to `O=C(NCc1ccc(Cl)cc1)c1cn2c3c(cc(CN4CCOCC4)cc3c1=O)N(CCCN1CCOCC1)C(=O)C2`, the IC50 (as a rule, the midpoint of a concentration-inhibition curve) in data set [1] stood at 4410 nM.
In the case of `CN(Cc1cc2c3c(c1)c(=O)c(C(=O)NCc1ccc(Cl)cc1)cn3CC(=O)N2C)C[C@@H](O)c1cc2ccccc2o1`, the IC50 is 4 nM in the data set on Human alphaherpesvirus 3; 4 nM in data set [1]; above 5000 nM in data set [2]; 29 nM in data set [4]; 1 nM in the data set with Human betaherpesvirus 5. In data set [3], the CC50 (as a rule, the concentration at which the toxic effect on the cells reaches its halfway point) at 72 h is above 15000 nM. Besides, the concentration in solution in data set [5] (solubility) was 0.94 µg/mL (≈ 1.61 µM).
`CN(Cc1cc2c3c(c1)c(=O)c(C(=O)NCc1ccc(Cl)cc1)cn3CC(=O)N2C)C[C@H](O)c1cc2ccccc2o1`: the figures for the IC50 (in data set [1]; in the data set with Human betaherpesvirus 5) were 180 nM and 90 nM, respectively. Further, the CC50 at 72 h in data set [3] was above 15000 nM.
Consider `CN(Cc1cc2cc(CCO)n3cc(C(=O)NCc4ccc(Cl)cc4)c(=O)c(c1)c23)C[C@@H](O)c1cnccn1`, for which the IC50 came to 14 nM in data set [1] and 10 nM in the data set with Human betaherpesvirus 5. Further, the concentration in solution in data set [5] (solubility) came to 17 µg/mL (≈ 31.1 µM).
In the case of `CN(Cc1cc2c3c(c1)c(=O)c(C(=O)NCc1ccc(Cl)cc1)cn3CC(=O)N2C)C[C@@H](O)c1ccsc1`, the results for the IC50 (in data set [1]; in the data set on Human betaherpesvirus 5) were 190 nM and 100 nM, respectively. This compound also displayed a CC50 at 72 h in data set [3] above 15000 nM.
Turning to `CN(Cc1cc2c3c(c1)c(=O)c(C(=O)NCc1ccc(Cl)cc1)cn3CC(=O)N2C)C[C@@H](O)c1ccccc1`, the IC50 in data set [1] turned out to be 130 nM; with Human betaherpesvirus 5, 100 nM. The CC50 at 72 h in data set [3] is above 15000 nM.
On to `CN(Cc1cc2c3c(c1)c(=O)c(C(=O)NCc1ccc(Cl)cc1)cn3CC(=O)N2C)C[C@H](O)c1ccccc1`, for which, in data set [1], the IC50 came out at 9160 nM.
As for `CN(Cc1cc2c3c(c1)c(=O)c(C(=O)NCc1ccc(Cl)cc1)cn3CC(=O)N2C)C[C@@H](O)c1ccccn1`, the IC50 is 300 nM in data set [1] and 20 nM in the data set on Human betaherpesvirus 5. This compound displayed a CC50 at 72 h in data set [3] above 15000 nM.
Consider `CN(Cc1cc2c3c(c1)c(=O)c(C(=O)NCc1ccc(Cl)cc1)cn3CC(=O)N2C)C[C@H](O)c1ccccn1`, for which the IC50 in data set [1] was found to be 5250 nM.
`CN(Cc1cc2c3c(c1)c(=O)c(C(=O)NCc1ccc(Cl)cc1)cn3CC(=O)N2C)C[C@@H](O)c1cccnc1`: the IC50 is 150 nM in data set [1] and 10 nM in the data set with Human betaherpesvirus 5. In data set [3], this compound returned a CC50 at 72 h above 15000 nM.
As to `CN(Cc1cc2c3c(c1)c(=O)c(C(=O)NCc1ccc(Cl)cc1)cn3CC(=O)N2C)C[C@H](O)c1cccnc1`, in data set [1], the IC50 is 4550 nM.
As to `CN(Cc1cc2c3c(c1)c(=O)c(C(=O)NCc1ccc(Cl)cc1)cn3CC(=O)N2C)C[C@@H](O)c1ccco1`, the IC50 in data set [1] was 110 nM; in the data set on Human betaherpesvirus 5, 10 nM. In data set [3], this compound had a 50% cytotoxic concentration (CC50) at 72 h above 15000 nM.
As for `CN(Cc1cc2c3c(c1)c(=O)c(C(=O)NCc1ccc(Cl)cc1)cn3CC(=O)N2C)C[C@H](O)c1ccco1`, in data set [1], the IC50 stood at 4930 nM.
For the compound `CN(Cc1cc2c3c(c1)c(=O)c(C(=O)NCc1ccc(Cl)cc1)cn3CC(=O)N2C)C[C@H](O)c1ccsc1`, in data set [1], the IC50 worked out at 5720 nM.
Consider `CN(Cc1cc2c3c(c1)c(=O)c(C(=O)NCc1ccc(Cl)cc1)cn3CC(=O)N2C)C[C@@H](O)c1nccs1`, for which the IC50 in data set [1] came to 490 nM; in the data set with Human betaherpesvirus 5, 100 nM.
Take `CN(Cc1cc2c3c(c1)c(=O)c(C(=O)NCc1ccc(Cl)cc1)cn3CC(=O)N2C)C[C@@H](O)c1cnccn1`: the IC50 is 260 nM in data set [1] and 200 nM in the data set with Human betaherpesvirus 5.
Turning to `CN(Cc1cc2c3c(c1)c(=O)c(C(=O)NCc1ccc(Cl)cc1)cn3CC(=O)N2C)C[C@H](O)c1cnccn1`, the IC50 in data set [1] came out at 7700 nM.
As to `O=C(NCc1ccc(Cl)cc1)c1cn2c3c(cc(CN4CCOCC4)cc3c1=O)N(CCCO)C(=O)C2`, the 50% inhibitory concentration (IC50) in data set [1] amounted to 1840 nM.
As for `CN1C(=O)Cn2cc(C(=O)NCc3ccc(Cl)cc3)c(=O)c3cc(CN4CCOCC4)cc1c32`, the IC50 with Human alphaherpesvirus 3 was 20 nM; in data set [1], 620 nM; in data set [2] it was above 5000 nM; in data set [4], 180 nM; with Human betaherpesvirus 5, 100 nM. Further, the solubility (as a rule, the dissolved amount per volume that the medium holds) in data set [5] was found to be 8.6 µg/mL (≈ 17.9 µM).
Consider `CCN1C(=O)Cn2cc(C(=O)NCc3ccc(Cl)cc3)c(=O)c3cc(CN4CCOCC4)cc1c32`, for which the IC50 in data set [1] worked out at 1280 nM.
For `O=C(NCc1ccc(Cl)cc1)c1cn2c3c(cc(CN4CCOCC4)cc3c1=O)N(CCO)C(=O)C2`, the IC50 in data set [1] was 830 nM; with Human betaherpesvirus 5 it was 700 nM.
In the case of `CN(Cc1cc2c(=O)c(C(=O)NCc3ccc(Cl)cc3)cn(C)c2s1)C[C@@H](O)c1ccco1`, the values for the IC50 (in data set [1]; with Human betaherpesvirus 5) were 35 nM and 7 nM, respectively. Besides, the solubility in data set [5] turned out to be 0.19 µg/mL (≈ 0.391 µM).
Consider `CN(Cc1cc2c3c(c1)c(=O)c(C(=O)NCc1ccc(Cl)cc1)cn3CC(=O)N2C)C[C@H](O)c1nccs1`, for which the IC50 in data set [1] stood at 6200 nM.
For `Cn1cc(C(=O)NCc2ccc(Cl)cc2)c(=O)c2cc(CN3CCOCC3)ccc21`, the IC50 in data set [1] was determined as 690 nM; in the data set with Human betaherpesvirus 5, 300 nM.
As to `Cn1cc(C(=O)NCc2ccc(Cl)cc2)c(=O)c2cc(CCCO)sc21`, the IC50 in data set [1] came out at 400 nM; with Human betaherpesvirus 5, 600 nM.
Regarding `CN(Cc1cc2c(=O)c(C(=O)NCc3ccc(Cl)cc3)cn(C)c2o1)C[C@@H](O)c1ccco1`, the IC50 in data set [1] was 76 nM; in the data set on Human betaherpesvirus 5 it was 26 nM.
In the case of `CN(Cc1cc2c3c(c1)c(=O)c(C(=O)NCc1ccc(Cl)cc1)cn3CC(=O)N2C)CC(O)c1ccc2ccccc2n1` (racemic), the IC50 in data set [1] came to 42 nM. For the same compound, the cytotoxic concentration (CC50) at 72 h in data set [3] was above 15000 nM.
As to `CN(Cc1cc2c3c(c1)c(=O)c(C(=O)NCc1ccc(Cl)cc1)cn3CC(=O)N2C)CC(O)c1csc2ccccc12` (racemic), the IC50 in data set [1] was 97 nM; in the data set on Human betaherpesvirus 5, 100 nM. In data set [3], the CC50 at 72 h is above 15000 nM.
With `CN(Cc1cc2c3c(c1)c(=O)c(C(=O)NCc1ccc(Cl)cc1)cn3CC(=O)N2C)CC(O)c1cc2ccccc2o1` (racemic), the IC50 in data set [1] turned out to be 8 nM. Also, in data set [3], the CC50 at 72 h is above 15000 nM.
For the compound `Nc1nc2c(ncn2COCCO)c(=O)[nH]1` [ACYCLOVIR], the IC50 in the data set with Human betaherpesvirus 5 stood at 20000 nM.
